We go through 1 compound from patent publication US20110313164A1, “LITHIUM DERIVATIVES OF PYRROLOQUINOLINE QUINONE AND PREPARATION METHOD THEREOF” (priority 2009, published 2011).

This assay concerns APP/PSI transgenic mice. The assay is described as follows: cognitive ability of APP/PSI transgenic mice (FIG. 1). The format is in vivo. Particulars: intragastric administration, 20-week-old mice, 1.5 and 6 mg/kg of weight. The procedure:
Intragastric administration is applied to 20-week-old mice. Wiletype is a wiletype control group; Ctrl is a transgenic control group; DNP is a […] group (1.5 mg/kg of weight); PQQLi 1.5 is a lithium pyrroloquinoline-quinone salt group (1.5 mg/kg of weight); PQQLi 6 is a lithium pyrroloquinoline-quinone group (6 mg/kg of weight). *p<0.05; ** p<0.005; NS: […].

Regarding `O=C(O)c1cc(C(=O)O)c2c(n1)C(=O)C(=O)c1cc(C(=O)[O-])[nH]c1-2.[Li+]` [PQQLi, 4,5-dihydroxy-1H-pyrrole[2,3-f]chinoline-2,7,9-tricarboxylic acid, lithium salt], the cognitive ability result is reported as “promotes the cognitive ability”.
